According to US6936624B2, “Agents for preserving technical materials against insects” (Nihon Bayer Agrochem K.K., priority 1991, dated 2005):
“And” between values parts separate entries of the source, which are not always exact repeats. Equal values may be shown once. Read-outs that look alike come from different tables or passages of the source.

Experiments:
[1] = test system: Reticulitermes santonensis; details: comparative values, Holz als Roh- und Werkstoff 35 (1977) 233-237, table 10; cited from earlier work
[2] = test system: larvae of Hylotrupes bajulus; details: comparative values, Holz als Roh- und Werkstoff 35 (1977) 233-237, table 6; cited from earlier work
[3] = test system: working termites and soldier termites (Coptotermes formosanus); experiment: whole plant or invertebrate; type: in vivo; details: for Degree of xylophagous damage in the pine tree block (0-5): after three weeks; for Mortality termites after three weeks: blocks aged four weeks at 40° C.; for mortality at 0.32 ppm / mortality at 1.6 ppm / mortality at 8 ppm / mortality at 40 ppm: Coptotermes formosanus, read-out: Mortality termites after three weeks
Procedure: Small blocks of Japanese redpine tree (2 cm×2 cm×2 cm) were soaked for one minute into the aqueous solution prepared by the similar procedure to Example 8.
After air-dried, they were kept in a constant temperature chamber at 40° C. for four weeks. Then each of the thus treated blocks was placed in a polymeric cup (10 cm diameter) containing 150 ml of sandy loam of 20% moisture content. Into each of the polymeric cups, 100 head of working termites and 10 head of soldier termites (Coptotermes formosanus) were released. After three weeks, the degree of xylophagous damage in the block and the mortality of the termites were investigated.

[4] = test system: worker termites (Coptotermes formosanus); experiment: Formicidal test: treated filter paper in petri dish, termite mortality; type: in vivo; details: for mortality at 0.32 ppm / mortality at 1.6 ppm / mortality at 8 ppm / mortality at 40 ppm: Coptotermes formosanus, 96 h, read-out: Mortality of termites after four days
Excerpt: Examples of the active compounds according to the present invention • I.1: 1-(6-chloro-3-pyridylmethyl)-2-nitromethylene-imidazolidine • I.2: 3-(6-chloro-3-pyridylmethyl)-2-nitromethylene-thiazolidine • I.3: imidacloprid
Comparative compounds • A: phoxim • B: chlorpyriphos Preparation of test formulation: • Solvent: 3 parts by weight of xylene • Emulsifier: 1 part by weight of polyoxyethylene-alkylphenyl-ether
To prepare a suitable formulation of the active compound, 1 part by weight of each of the active compounds was mixed with the above-mentioned amount of the solvent containing the above-mentioned amount of the emulsifier, and the mixture was diluted with water to a predetermined concentration.
1 ml of the aqueous solution prepared in the above-mentioned procedure was uniformly applied using a pipette onto a filter paper that was placed in petri dish of 9 cm diameter. Ten head of worker termites (Coptotermes formosanus) were replaced into the petri dish and it was kept in a constant temperature chamber at 25° C.
After four days, the mortality of the termites was investigated. This test procedure was carried out in duplicate per each concentration of the active compounds under test.

[5] = test system: larvae of Hylotrupes bajulus; experiment: Toxic value against larvae of Hylotrupes bajulus, DIN EN 47, impregnated wood samples; type: in vivo
Excerpt: The toxicity against larvae of Hylotorupes bajulus, using wood samples treated with the active compound I.3 […] to the detailed description of DIN EN 47 (edition 1990, Beuth Verlag GMBH) which is concerned with the European standard method prescribed by the European Committee for standardization concerning wood preservatives, determination of the toxic value against larvae of Hylotrupes bajulus.
An outline of the method is as follows: (see DIN EN 47 for detail)
Five wood-samples (50 mm×25 mm×15 mm) which are treated by the active compound beforehand (impregnation treatment in vacuum) are provided and in each specimen, a regular pattern of six holes are bored, and then one head of the larvae is inserted per a hole.
After four weeks, the specimens are cut up in turn and the number of live/dead of larvae is determined.
In determination, where a live larvae is identified in a specimen, then the remaining specimens without cutting up are stored for a further eight weeks, and afterword, the number of live/dead larvae is determined.

[6] = test system: Reticulitermes santonensis; experiment: Effectiveness against Reticulitermes santonensis, DIN EN 117, impregnated wood samples; type: in vivo; details: eight weeks, per wood sample
Procedure: The toxicity against Reticulitermes santonensis of solutions containing the active compound I.3 in chloroform having the concentrations mentioned in Example 10 was determined according to the detailed description of DIN EN 117 Edition 1981 which is concerned with the European standard method prescribed by the European Committee for standardization concerning wood preservatives, determination of the toxic value against Reticulitermes santonesis.
An outline of the method is as follows: (see DIN EN 117 for detail)
The same three wood-samples with impregnation treatment in vacuum as in Example 10 are provided.
They are exposed to 250 workers, 1 soldier and 1 nymph per batch for eight weeks, and afterword, the number of live/dead larvae is determined.
The evaluation was made by the following standard:
* rating values: • 0=no attack • 1=attempted attack • 2=slight attack • 3=average attack • 4=strong attack

[7] = 0.32 ppm active compound, filter paper, 25° C.
[8] = 1.6 ppm active compound, filter paper, 25° C.
[9] = 8 ppm active compound, filter paper, 25° C.
[10] = 40 ppm active compound, filter paper, 25° C.
[11] = 4 weeks, impregnating solution 0.00144 %, M-value 10.80 g/m^3 wood
[12] = 4 weeks, impregnating solution 0.0072 %, M-value 52.85 g/m^3 wood
[13] = 4 weeks, impregnating solution 0.0144 %, M-value 103.97 g/m^3 wood
[14] = 12 weeks, impregnating solution 0.000144 % (so in the source), M-value 0.11 g/m^3 wood
[15] = 12 weeks, impregnating solution 0.000144 %, M-value 1.08 g/m^3 wood
[16] = 12 weeks, impregnating solution 0.00144 % (remaining three specimens), M-value 10.80 g/m^3 wood
[17] = 1.44 × 10^−2% (m/m), average absorbed 136.627 g/m^3
[18] = 1.44 × 10^−3% (m/m), average absorbed 13.463 g/m^3
[19] = 1.44 × 10^−4% (m/m), average absorbed 1.344 g/m^3
[20] = 1.44 × 10^−5% (m/m), average absorbed 0.135 g/m^3
[21] = 7.20 × 10^−3% (m/m), average absorbed 68.211 g/m^3

CCOP(=S)(OCC)Oc1ccc([N+](=O)[O-])cc1 [Ethylparathion]
toxic value [1]: 200 g/m^3

Clc1ccc(C(c2ccc(Cl)cc2)C(Cl)(Cl)Cl)cc1 [DDT]
toxic value [1]: >1 500 g/m^3 | toxic value [2]: 5-10 g/m^3

CCOP(=S)(OCC)Oc1nc(Cl)c(Cl)cc1Cl [B, 0,0-diethyl-3,5,6-trichloro-2-pyridylphosphorothioate, reference compound]
Degree of xylophagous damage in the pine tree block (0-5) ([3]; 0.32 ppm): 5 | Mortality termites after three weeks ([3]; 0.32 ppm): 0% | Degree of xylophagous damage in the pine tree block (0-5) ([3]; 1.6 ppm): 3 | Mortality termites after three weeks ([3]; 1.6 ppm): 0% | Degree of xylophagous damage in the pine tree block (0-5) ([3]; 8 ppm): 1 | Mortality termites after three weeks ([3]; 8 ppm): 78% | Degree of xylophagous damage in the pine tree block (0-5) ([3]; 40 ppm): 0 | Mortality termites after three weeks ([3]; 40 ppm): 100% | Mortality of termites after four days [4, 7]: 100% | Mortality of termites after four days [4, 8]: 100% | Mortality of termites after four days [4, 9]: 100% | Mortality of termites after four days [4, 10]: 100%

Cl[C@H]1[C@H](Cl)[C@@H](Cl)[C@@H](Cl)[C@H](Cl)[C@H]1Cl [Lindan]
toxic value [1]: 75 g/m^3

CNC(=O)Oc1ccccc1OC(C)C [Propoxur]
toxic value [1]: 140 g/m^3 | toxic value [2]: 18-30 g/m^3

O=[N+]([O-])N=C1NCCN1Cc1ccc(Cl)nc1 [I.3, 1-(6-chloro-3-pyridylmethyl)-2-nitroimino-imidazolidine]
State of the larvae at the end of the test: dead, no wood digested [5, 11]: 4 | State of the larvae at the end of the test: dead, wood digested [5, 11]: 6 | State of the larvae at the end of the test: living [5, 11]: 1 | State of the larvae at the end of the test: not found [5, 11]: 1 | State of the larvae at the end of the test: dead, no wood digested [5, 12]: 29 | State of the larvae at the end of the test: dead, wood digested [5, 12]: 1 | State of the larvae at the end of the test: living [5, 12]: 0 | State of the larvae at the end of the test: not found [5, 12]: 0 | State of the larvae at the end of the test: dead, no wood digested [5, 13]: 27 | State of the larvae at the end of the test: dead, wood digested [5, 13]: 3 | State of the larvae at the end of the test: living [5, 13]: 0 | State of the larvae at the end of the test: not found [5, 13]: 0 | State of the larvae at the end of the test: dead, no wood digested [5, 14]: 1 | State of the larvae at the end of the test: dead, wood digested [5, 14]: 4 | State of the larvae at the end of the test: living [5, 14]: 23 | State of the larvae at the end of the test: not found [5, 14]: 2 | State of the larvae at the end of the test: dead, no wood digested [5, 15]: 4 | State of the larvae at the end of the test: dead, wood digested [5, 15]: 12 | State of the larvae at the end of the test: living [5, 15]: 11 | State of the larvae at the end of the test: not found [5, 15]: 3 | State of the larvae at the end of the test: dead, no wood digested [5, 16]: 6 | State of the larvae at the end of the test: dead, wood digested [5, 16]: 11 | State of the larvae at the end of the test: living [5, 16]: 0 | State of the larvae at the end of the test: not found [5, 16]: 1 | Degree of xylophagous damage in the pine tree block (0-5) ([3]; 0.32 ppm): 0 | Degree of xylophagous damage in the pine tree block (0-5) ([3]; 1.6 ppm): 0 | Degree of xylophagous damage in the pine tree block (0-5) ([3]; 8 ppm): 0 | Degree of xylophagous damage in the pine tree block (0-5) ([3]; 40 ppm): 0 | mortality at 0.32 ppm [3]: 100% | mortality at 1.6 ppm [3]: 100% | mortality at 8 ppm [3]: 100% | mortality at 40 ppm [3]: 100% | rating [6, 17]: 0 | surviving workers [6, 17]: 0% | rating [6, 18]: 1 | surviving workers [6, 18]: 0% | rating [6, 19]: 1 | surviving workers [6, 19]: 0% | rating [6, 20]: 4 | surviving workers [6, 20]: 55% and 51% and 58% | rating [6, 21]: 0 | surviving workers [6, 21]: 0% | mortality at 0.32 ppm [4]: 100% | mortality at 1.6 ppm [4]: 100% | mortality at 8 ppm [4]: 100% | mortality at 40 ppm [4]: 100%

ClC1=C(Cl)[C@]2(Cl)[C@@H]3[C@@H]4C[C@@H]([C@H]5O[C@@H]45)[C@@H]3[C@@]1(Cl)C2(Cl)Cl [Dieldrin]
toxic value [1]: 50 g/m^3

CCC(C)c1ccccc1OC(=O)NC (stereo not shown) [Bassa (Baycarb)]
toxic value [1]: 500 g/m^3

O=[N+]([O-])C=C1NCCN1Cc1ccc(Cl)nc1 [I.1, 1-(6-chloro-3-pyridylmethyl)-2-nitromethylene-imidazolidine]
Degree of xylophagous damage in the pine tree block (0-5) ([3]; 0.32 ppm): 0.5 | Degree of xylophagous damage in the pine tree block (0-5) ([3]; 1.6 ppm): 0 | Degree of xylophagous damage in the pine tree block (0-5) ([3]; 8 ppm): 0 | Degree of xylophagous damage in the pine tree block (0-5) ([3]; 40 ppm): 0 | mortality at 0.32 ppm [3]: 98% | mortality at 1.6 ppm [3]: 100% | mortality at 8 ppm [3]: 100% | mortality at 40 ppm [3]: 100% | mortality at 0.32 ppm [4, 7]: 100% | mortality at 1.6 ppm [4, 8]: 100% | mortality at 8 ppm [4, 9]: 100% | mortality at 40 ppm [4, 10]: 100%

O=[N+]([O-])C=C1SCCN1Cc1ccc(Cl)nc1 [I.2, 3-(6-chloro-3-pyridylmethyl)-2-nitromethylene-thiazolidine]
Degree of xylophagous damage in the pine tree block (0-5) ([3]; 0.32 ppm): 0 | Degree of xylophagous damage in the pine tree block (0-5) ([3]; 1.6 ppm): 0 | Degree of xylophagous damage in the pine tree block (0-5) ([3]; 8 ppm): 0 | Degree of xylophagous damage in the pine tree block (0-5) ([3]; 40 ppm): 0 | mortality at 0.32 ppm [3]: 100% | mortality at 1.6 ppm [3]: 100% | mortality at 8 ppm [3]: 100% | mortality at 40 ppm [3]: 100% | mortality at 0.32 ppm [4]: 100% | mortality at 1.6 ppm [4]: 100% | mortality at 8 ppm [4]: 100% | mortality at 40 ppm [4]: 100%

CCOP(=S)(OCC)ON=C(C#N)c1ccccc1Cl [Chlorophoxim]
toxic value [1]: 500 g/m^3
